What follows are molecules tested against Muscarinic acetylcholine receptor M1 (Rattus norvegicus) (UniProt P08482) (assay: M1 inhibitors against agonist EC80 response – cell-based, calcium fluorescence, dose response (AID 859)). Conditions: M1-expressing cells, antagonist mode vs EC80.
Chain of Muscarinic acetylcholine receptor M1 (Rattus norvegicus) (P08482 whole entry, looked up): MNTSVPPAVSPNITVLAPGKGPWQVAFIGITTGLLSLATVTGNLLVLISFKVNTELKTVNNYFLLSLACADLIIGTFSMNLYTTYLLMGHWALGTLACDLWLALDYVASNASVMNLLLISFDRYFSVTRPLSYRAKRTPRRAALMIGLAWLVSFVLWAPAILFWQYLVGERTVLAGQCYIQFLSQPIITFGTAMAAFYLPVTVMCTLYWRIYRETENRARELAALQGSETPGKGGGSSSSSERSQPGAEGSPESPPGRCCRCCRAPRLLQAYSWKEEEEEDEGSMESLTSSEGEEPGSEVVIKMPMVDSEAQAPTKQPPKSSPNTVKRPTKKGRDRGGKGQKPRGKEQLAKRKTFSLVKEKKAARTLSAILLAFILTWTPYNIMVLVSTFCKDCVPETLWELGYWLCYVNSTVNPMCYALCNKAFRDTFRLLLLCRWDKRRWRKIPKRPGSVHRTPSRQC
`CCN1CCN(Cc2cc(=O)oc3cc(C)cc(C)c23)CC1` gave an IC50 of 974 nM. With `CC[N+]1(C)CCCC(OC(=O)C(O)(c2ccccc2)c2ccccc2)C1` (stereo unspecified) the IC50 was 15.9 nM. `CN1CCN(C2=Nc3ccccc3Oc3ccc(Cl)cc32)CC1` gave an IC50 of 1210 nM. Work on `OC(CCN1CCCC1)(c1ccccc1)C1CCCCC1` (stereo unspecified) yielded an IC50 of 116 nM. `Cc1onc(-c2ccccc2Cl)c1C(=O)Nc1ccc(-c2nnc3n2CCCCC3)cc1` was tested, and the IC50 was 491 nM. With `Cn1cc(CN2CCN(c3ccccc3)CC2)c2ccccc21` the IC50 was 226 nM. With `CCOc1nc(C#N)nc(N2CCCCC2)n1` the IC50 was 1350 nM. Molecule `CN1CCCN=C1COC(=O)C(O)(c1ccccc1)C1CCCCC1` (stereo unspecified) has an IC50 of 12.6 nM. Work on `CCCC(CCC)C(=O)OC1C[C@H]2CC[C@@H](C1)[N+]2(C)C` (stereo partly specified) yielded an IC50 of 302 nM. `CN1CCN(CCC(C#N)(c2ccccc2)c2ccccc2)CC1` was tested, and the IC50 was 395 nM. `O=C1CC(N2CCN(c3ccc(S(=O)(=O)N4CCOCC4)cc3)CC2)C(=O)N1Cc1ccccc1` (stereo unspecified) was tested, and the IC50 was 777 nM. `Cc1ccc2c(c1)NC(=O)C(CC(=O)Nc1ccc(CN3CCC(C)CC3)cc1)O2` (stereo unspecified) showed an IC50 of 290 nM. `CN(C)CCOC(=O)C(c1ccccc1)C1(O)CCCC1` (stereo unspecified) showed an IC50 of 25.7 nM. In the case of `Cc1ccc2nc(NC3=NCN(CCN4CCOCC4)CN3)nc(C)c2c1`, the IC50 is reported as 2.77 nM. `Clc1ccc(OCc2nnc(SCCN3CCCCC3)n2Cc2ccco2)cc1` gave an IC50 of 1400 nM. `CN(C)CCC=C1c2ccccc2CCc2ccccc21` showed an IC50 of 637 nM. Molecule `CCN(CCCCOC(=O)c1ccc(OC)c(OC)c1)C(C)Cc1ccc(OC)cc1` (stereo unspecified) has an IC50 of 1160 nM. `c1ccc(-c2cc(-c3nnc4sc(-c5ccccn5)nn34)[nH]n2)cc1` gave an IC50 of 414 nM. `CCN(CC)CCOC(=O)C(c1ccccc1)c1ccccc1` showed an IC50 of 327 nM. Work on `CN1CCC(OC(=O)C2c3ccccc3Oc3ccccc32)CC1` yielded an IC50 of 9.27 nM. Work on `CNCCCC1c2ccccc2C=Cc2ccccc21` yielded an IC50 of 1260 nM. `C=CCSc1nnc2c(n1)OC(c1cccnc1)N(C(C)=O)c1ccccc1-2` (stereo unspecified) was tested, and the IC50 was 190 nM. Work on `Cc1cccc(Cn2c(Sc3nc(C)cs3)nc3c2c(=O)[nH]c(=O)n3C)c1` yielded an IC50 of 20.2 nM. Molecule `Cc1c(C(=O)OC(C)CCN(C)C)oc2ccccc12` (stereo unspecified) has an IC50 of 681 nM. In the case of `O=C(CN1CCCC(O)C1)N1c2ccccc2Sc2ccc(C(F)(F)F)cc21` (stereo unspecified), the IC50 is reported as 766 nM. `OC(CCN1CCCCC1)(c1ccccc1)c1ccccc1` showed an IC50 of 58 nM. Molecule `CCC(C)N(CCNC(=O)CC1Oc2ccc(C)cc2NC1=O)C1CCCCC1` (stereo unspecified) has an IC50 of 1000 nM. `CCOC(=O)Nc1ccc2c(c1)N(C(=O)N1CCN(C)CC1)c1ccccc1S2` gave an IC50 of 1410 nM. `O=C(OCCN1CCCC1)C1(c2ccccc2)CCCC1` showed an IC50 of 182 nM. `O=C1CC(N2CCN(C/C=C/c3ccccc3)CC2)C(=O)N1Cc1cccs1` (stereo unspecified) was tested, and the IC50 was 846 nM. In the case of `CCN1C(=O)/C(=C\N2CCCCCC2)SC1=S`, the IC50 is reported as 438 nM. `COC(=O)Nc1ccc2c(c1)N(C(=O)CCN1CCOCC1)c1ccccc1S2` showed an IC50 of 1060 nM. With `O=C(CN1CCN(CCOCCO)CC1)N1c2ccccc2Sc2ccc(Cl)cc21` the IC50 was 1030 nM. Work on `CC1CCN(Cc2ccc(NC(=O)CC3Oc4ccccc4NC3=O)cc2)CC1` (stereo unspecified) yielded an IC50 of 234 nM. `CN(C)CCCOC(=O)C1c2ccccc2Oc2ccccc21` was tested, and the IC50 was 63.7 nM. In the case of `Cc1nc2c(o1)CCc1ccccc1C2N1CCN(C)CC1` (stereo unspecified), the IC50 is reported as 46.4 nM.

Source: PubChem BioAssay AID859 (Vanderbilt High Throughput Screening Facility, 2007)
